Measured values from US9285319B2, “Nucleic acid base analogs with quenching and fluorescent activities and applications thereof” (RIKEN, priority 2010, dated 2016).
Like-named read-outs stand apart in the source and are kept apart here.

Tests used:
[1] = Fluorescence intensity of fluorescent molecule (Cy3) linked to Px base having a quenching activity; assay type: physicochemical; settings: free substrate
[2] = target: T1, Klenow fragment not having exonuclease activity (KF exo−) (Escherichia coli, UniProt P00582, D355A/E357A); assay type: biochemical; settings: for Km / Vmax: 37° C., SD in parentheses
T1 construct: a Klenow fragment not having exonuclease activity; purchased Amersham USB
Description: An experiment of single-base incorporation by a Klenow fragment was performed with reference to documents (Kimoto, M., Yokoyama, S., Hirao, I., Biotechnol. Lett., 2004, 26, 999-1005; Petruska, J., Goodman, M. F., Boosalis, M. S., Sowers, L. C., Cheong, C., Tinoco, I., Proc. Natl. Acad. Sci. USA, 1988, 85, 6252-6256; Goodman, M. F., Creighton, S., Bloom, L. B., Petruska, J., Crit. Rev. Biochem. Mol. Biol., 1993, 28, 83-126; Morales, J. C., Kool, E. T., Nat. Struct. Biol., 1998, 5, 950-954).
Specifically, a primer (20-mer, 5′-[…]-3′ (SEQ ID NO: 4) or 5′-[…]-3′ (SEQ ID NO: 5)) labeled with 6-carboxyfluorescein at the 5′ end and a template DNA (35-mer, 5′-AGCTCTDss[…]-3′ (SEQ ID NO: 6) or 5′-[…]-3′ (N=Pn, A, G, C, or T) (SEQ ID NO: 7)) were heated in a 100 mM Tris-HCl buffer (pH 7.5) containing 20 mM MgCl2, 2 mM DTT, and 100 μg/mL bovine serum albumin (BSA) at 95° C. and were then gradually cooled to 4° C. for annealing to form a double strand of the template and the primer.
An enzyme solution (2 μL) of a Klenow fragment not having exonuclease activity (KF exo−, Amersham USB) was added to 5 μL of each primer-template double-stranded DNA solution (10 μM). The mixture was incubated at 37° C. for 2 minutes to form a DNA/enzyme complex. To this solution, 3 μL of each substrate solution, i.e., nucleoside triphosphate solution (Dss, Pn, or one of A, G, C, and T, 1 μM to 5 mM) was added, followed by an enzyme reaction at 37° C. (for 1 to 35 minutes). The reaction was terminated by adding 10 μL of a 20 mM EDTA solution in 95% formamide (stop solution) to the reaction solution and heating the solution at 75° C. for 3 minutes.
The reaction conditions are summarized as follows. For each solution (10 μL), 5 μM primer-template double strand, 5 to 50 nM enzyme, and 0.3 to 1500 μM substrate are used. The solution (10 μL) contains 50 mM Tris-HCl (pH 7.5), 10 mM MgCl2, 1 mM DTT, and 0.05 mg/mL BSA. The reaction is performed at 37° C. for 1 to 35 minutes.
A part of the reaction solution was diluted with the stop solution, and 0.5 μL of the diluted reaction solution was mixed with 3 μL of a loading solution (deionized formamide: 50 mg/mL blue dextran solution containing 25 mM EDTA=5:1). The solution mixture was heated at 90° C. for 2 minutes and then was rapidly cooled on ice. About 0.5 μL of the solution was loaded on every other lane of a sequencing gel for electrophoresis. The sequencing gel (36 cm WTR) was composed of 6 M urea, 10% polyacrylamide (acrylamide:bisacrylamide=19:1), and 0.5×TBE. The buffer used for the electrophoresis was 0.5×TBE. The Run Module was GS Run 36C-2400. The time for electrophoresis was about 1 hour, and the peak patterns of the reaction products were analyzed and quantitatively measured by an automated ABI377 DNA sequencer equipped with GeneScan software (version 3.0).
The proportion of the primer extended by one nucleotide was determined from the peak area of the unreacted primer fragment and the peak area of the DNA fragment extended by single-base incorporation, and enzymatic parameters Vmax and KM were calculated by Hanes-Woolf plot (Goodman, M. F., Creighton, S., Bloom, L. B., Petruska, J., Crit. Rev. Biochem. Mol. Biol., 1993, 28, 83-126). The Vmax value was standardized to 20 nM enzyme concentration and 5 μM double strand concentration for various enzyme and double-strand concentrations used.

[3] = template N = T, primer 5′-ACTCACTATAGGGAGCTTCT
[4] = template N = Dss, primer 5′-[…]
[5] = template N = A, primer 5′-ACTCACTATAGGGAGGAAGA

T1 sequence (P00582 324-928 D355A/E357A): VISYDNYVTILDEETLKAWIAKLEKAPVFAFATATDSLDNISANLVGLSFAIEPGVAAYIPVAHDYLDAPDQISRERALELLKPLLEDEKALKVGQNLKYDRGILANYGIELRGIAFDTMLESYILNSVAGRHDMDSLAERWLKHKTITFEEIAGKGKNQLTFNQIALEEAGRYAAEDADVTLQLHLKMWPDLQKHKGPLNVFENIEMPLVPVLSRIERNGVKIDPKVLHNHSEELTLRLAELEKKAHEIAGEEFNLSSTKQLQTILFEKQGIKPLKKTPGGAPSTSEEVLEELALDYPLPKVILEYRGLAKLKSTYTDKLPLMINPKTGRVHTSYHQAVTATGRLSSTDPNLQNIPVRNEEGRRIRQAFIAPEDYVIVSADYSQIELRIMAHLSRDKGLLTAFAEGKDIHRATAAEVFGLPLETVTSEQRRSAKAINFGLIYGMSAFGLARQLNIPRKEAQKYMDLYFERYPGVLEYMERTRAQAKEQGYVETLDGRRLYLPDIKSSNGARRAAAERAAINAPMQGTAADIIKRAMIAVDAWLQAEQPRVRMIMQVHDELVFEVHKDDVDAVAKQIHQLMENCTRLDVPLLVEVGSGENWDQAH

In the case of “1-(2-deoxy-β-D-ribofuranosyl-4-[3-(Cy3-carboxamide hexanamide)-1-propynyl]-2-nitropyrrole 5′-triphosphate [Cy3-hx-dPxTP]”, the “fluorescence intensity of fluorescent molecule quenched when linked to Px base” value [1] is reported as “about 30%”.
With `Nc1ncnc2c1ncn2[C@H]1C[C@H](O)[C@@H](COP(=O)(O)OP(=O)(O)OP(=O)(O)O)O1` [dATP, deoxyriboadenosine triphosphate] the “Efficiency (Vmax/KM)” value [2, 3] was 4.0 × 10^6 % min^−1 M^−1, the Km [2, 3] was 0.81 µM and the Vmax [2, 3] was 3.3 (1.8) % min^−1.
For `O=[N+]([O-])c1cccn1[C@H]1C[C@H](O)[C@@H](COP(=O)(O)OP(=O)(O)OP(=O)(O)O)O1` [dPnTP], the “Efficiency (Vmax/KM)” value [2, 4] was 1.1 × 10^5 % min^−1 M^−1, the Km [2, 4] was 100 µM and the Vmax [2, 4] was 11 (3) % min^−1.
In the case of deoxyribothymidine triphosphate [dTTP], the “Efficiency (Vmax/KM)” value [2, 5] is reported as 4.0 × 10^6 % min^−1 M^−1, the Km [2, 5] is reported as 0.7 µM and the Vmax [2, 5] is reported as 2.8 (1.5) % min^−1.
